Article PMC7925099, “Identification of an Antiretroviral Small Molecule That Appears To Be a Host-Targeting Inhibitor of HIV-1 Assembly” (Journal of Virology, 2021)
pEC50: −log10 of the molar value. Like-named read-outs stand apart in the source and are kept apart here.

Experiments:
HIV-1 NL4-3 RLuc = assay: MT-2 spreading infection assay (inhibition of HIV-1 replication); conditions: for SI (CC50/EC50): from average values
Procedure: Inhibition of HIV-1 viral replication was assayed in a spreading infection using MT-2 cells and NL4-3 RLuc reporter virus. For dose-response curves, compounds were initially diluted with DMSO to 100-fold the starting concentration in a 96-well plate and subjected to a series of 3-fold dilutions in DMSO for a total of eight or nine dilutions. If a single compound concentration was tested, the compound was diluted to 100-fold the desired concentration in DMSO. Compounds were then diluted 50-fold with infection media prepared by diluting NL4-3 RLuc virus stock to 400 IU/100 μl with complete RPMI. Then, 100 μl of 50-fold-diluted compound was transferred to 20,000 MT-2 cells that were preseeded in 96-well plates in 100 μl of complete RPMI for a final volume of 200 μl, followed by incubation at 37°C for 96 h. The final MOI in infected plates was 0.02, and the final DMSO concentration in all wells was 1%. All assays were run with three replicates. For each replicate, one well received DMSO only, and one well received medium only for normalization and background correction. […] Plates were read on a luminescence plate reader (Synergy H1; BioTek Instruments, Inc.).
(§3) EC50 and CC50 values were determined in Excel using four-parameter logistic regression analysis of dose-response data generated from the viral inhibition or cytotoxicity assays, respectively. […] Average EC50 and CC50 values were calculated using the geometric mean and average values were reported with the geometric standard deviation (GSD).

in vitro = conditions: human
Procedure: (§4) For each viral inhibition assay, a cytotoxicity assay was performed in parallel on uninfected cells by adding 1/10 volume of alamarBlue (Thermo Fisher, Waltham, MA; DAL1199) to the plates, followed by thorough mixing. AlamarBlue-treated plates were incubated for 2 to 3 h at 37°C (the timing was optimized for the linear signal), mixed well, and read using a fluorescence plate reader with 560 nm and 590 nm as the excitation and emission settings, respectively (Synergy H1; BioTek Instruments, Inc.).
as §3

G3BP1 = biological target: T1, G3BP1 (Homo sapiens, UniProt Q13283); assay: Biotin-G3BP1 proximity ligation assay; format: cell-based; conditions: 293T-HIV; for PLA spots/cell (biotin-G3BP1 PLA): 10 μM, 16 h
T1 construct: endogenous in cells; host or cells: 293T-HIV cells
Procedure: (§1) For each treatment, one-half of a Grace Biolabs Culture Well silicone chamber (Millipore-Sigma; GBL103380) was attached to a cover glass (Carl Zeiss, Oberkochen, Germany; catalog no. 474030-9000-000) to create four chambers on the cover glass. Each chambered cover glass was placed into a well of a 6-well plate, and the chambers were coated with poly-L-lysine and allowed to dry overnight. The next day, ∼4 × 10^3 293T/17 or 293T-HIV cells were seeded into each chamber, followed by incubation at 37°C for 5 to 6 h. After the cells adhered, they were treated with compound or DMSO. At 16 h posttreatment, the cells were fixed for 15 min in 4% paraformaldehyde in PBS (pH 7.4), permeabilized in 0.5% (wt/vol) saponin in PBS (pH 7.4) for 10 min, and blocked in Duolink blocking solution (Millipore-Sigma) at 37°C for 30 min. […] For quantification, 5 to 10 fields, each containing at least three IF-positive cells, were chosen at random and imaged using identical exposure times for each channel (100 to 150 ms for the PLA channel in red; 0.5 to 1 s for the IF channel in green, depending on the IF primary antibody; and 20 ms for the DAPI channel in blue). […] The ROIs identified in the IF channel were applied to a maximum intensity z projection of the PLA channel, and PLA spots within the ROI were counted using the find maxima function in Fiji, with noise threshold optimized to identify only PLA spots. Nuclei from each field were counted manually to determine the number of cells. […]

HIV-1 Gag = assay: Biotin-Gag proximity ligation assay; format: cell-based; conditions: for biotin-Gag PLA spots/cell: 16 h
Procedure: (§2) For each treatment, one-half of a Grace Biolabs Culture Well silicone chamber (Millipore-Sigma; GBL103380) was attached to a cover glass (Carl Zeiss, Oberkochen, Germany; catalog no. 474030-9000-000) to create four chambers on the cover glass. Each chambered cover glass was placed into a well of a 6-well plate, and the chambers were coated with poly-L-lysine and allowed to dry overnight. The next day, ∼4 × 10^3 293T/17 or 293T-HIV cells were seeded into each chamber, followed by incubation at 37°C for 5 to 6 h. After the cells adhered, they were treated with compound or DMSO. At 16 h posttreatment, the cells were fixed for 15 min in 4% paraformaldehyde in PBS (pH 7.4), permeabilized in 0.5% (wt/vol) saponin in PBS (pH 7.4) for 10 min, and blocked in Duolink blocking solution (Millipore-Sigma) at 37°C for 30 min. The cells were incubated in primary antibodies using the following concentrations: for the Gag-biotin PLA, mouse αGag p24 was used at 0.2 μg/ml, and rabbit αbiotin was used at 4 μg/ml; for the biotin-ABCE1 PLA, rabbit αABCE1 was used at 0.3 μg/ml, and mouse αbiotin was used at 0.7 μg/ml; for the biotin-DDX6 PLA, rabbit αDDX6 was used at 0.5 μg/ml and mouse αbiotin was used at 0.3 μg/ml; for the ABCE1-DDX6 PLA, rabbit αABCE1 was used at 0.3 μg/ml, and mouse αDDX6 was used at 0.3 μg/ml; for the biotin-G3BP1 PLA, rabbit αG3BP1 was used at 0.025 μg/ml, and mouse αbiotin was used at 0.2 μg/ml; for the TIAR-G3BP1 PLA, rabbit αG3BP1 was used at 0.025 μg/ml, and mouse αTIAR was used at 0.025 μg/ml; for the biotin-XRN1 PLA, rabbit α XRN1 was used at 0.5 μg/ml, and mouse αbiotin was used at 0.2 μg/ml; and for the DDX6-XRN1 PLA, rabbit αXRN1 was used at 0.5 μg/ml, and mouse αDDX6 was used at 0.5 μg/ml. For the NI control PLA experiments, NI control antibodies from the relevant species were used at the same concentration as the primary antibody they replaced. Primary incubation was followed by incubation with Duolink reagents (Millipore-Sigma): oligonucleotide-linked secondary antibody, ligation mix, and red amplification/detection mix, with washes in between, in accordance with the Duolink protocol. For concurrent IF analysis following the final 1× PLA buffer B washes, cells were incubated for 30 min at room temperature with 1:1,000 Alexa Fluor 488-anti-mouse secondary antibody. Cover glasses were mounted using Duolink in situ mounting medium with DAPI (4′,6′-diamidino-2-phenylindole; Millipore-Sigma), sealed to the glass slides with clear nail polish, allowed to dry for 24 h at room temperature, and stored at −20°C. Imaging was performed with a Zeiss Axio Observer.Z1/7 deconvolution microscope using Zeiss Plan-Apochromat 63×/aperture 1.4 objective with oil immersion, with Zen 2.6 (blue edition) software. For quantification, 5 to 10 fields, each containing at least three IF-positive cells, were chosen at random and imaged using identical exposure times for each channel (100 to 150 ms for the PLA channel in red; 0.5 to 1 s for the IF channel in green, depending on the IF primary antibody; and 20 ms for the DAPI channel in blue). Images were captured as a Z-stack of 80 to 90 0.24-μm slices that included the entire cell body and 5 μm above and below the cell (∼20 μm total). To determine the number of PLA spots per cell, image stacks were processed as follows in Fiji ([96]). First, an in-focus slice from the IF channel was selected using the Find Focused Slices plugin within ImageJ (Q. Tseng, 2020 [https://sites.google.com/site/qingzongtseng/find-focus]), and thresholding was used to generate regions of interest (ROI) that contained only cells. The ROIs identified in the IF channel were applied to a maximum intensity z projection of the PLA channel, and PLA spots within the ROI were counted using the find maxima function in Fiji, with noise threshold optimized to identify only PLA spots. Nuclei from each field were counted manually to determine the number of cells. […]

TIAR and G3BP1 = assay: TIAR-G3BP1 proximity ligation assay in compound-treated cells; format: cell-based, human; conditions: 10 μM; 16 h; 293T-HIV
Procedure: as §1, with “DMSO.” for “DMSO. At 16 h posttreatment, the cells were fixed for 15 min in 4% paraformaldehyde in PBS (pH 7.4), permeabilized in 0.5% (wt/vol) saponin in PBS (pH 7.4) for 10 min, and blocked in Duolink blocking solution (Millipore-Sigma) at 37°C for 30 min.”

XRN1 = biological target: T2, XRN1 (Homo sapiens, UniProt Q8IZH2); assay: Biotin-XRN1 proximity ligation assay; format: cell-based; conditions: 293T-HIV; for PLA spots/cell (biotin-XRN1 PLA): 10 μM, 16 h
T2 construct: endogenous in cells; host or cells: 293T-HIV cells
Procedure: as §1

DDX6 and XRN1 = assay: DDX6-XRN1 proximity ligation assay in compound-treated cells; format: cell-based, human; conditions: 10 μM; 16 h; 293T-HIV
Procedure: as §1, with “DMSO.” for “DMSO. At 16 h posttreatment, the cells were fixed for 15 min in 4% paraformaldehyde in PBS (pH 7.4), permeabilized in 0.5% (wt/vol) saponin in PBS (pH 7.4) for 10 min, and blocked in Duolink blocking solution (Millipore-Sigma) at 37°C for 30 min.”

ABCE1 = biological target: T3, ABCE1 (Homo sapiens, UniProt P61221); assay: Biotin-ABCE1 proximity ligation assay; format: cell-based; conditions: for biotin-ABCE1 PLA spots/cell: 16 h
T3 construct: endogenous in cells; host or cells: 293T/17 and 293T-HIV cells
Procedure: as §2

DDX6 = biological target: T4, DDX6 (Homo sapiens, UniProt P26196); assay: Biotin-DDX6 proximity ligation assay; format: cell-based; conditions: for biotin-DDX6 PLA spots/cell: 16 h
T4 construct: endogenous in cells; host or cells: 293T/17 and 293T-HIV cells
T4 sequence (P26196 1-483): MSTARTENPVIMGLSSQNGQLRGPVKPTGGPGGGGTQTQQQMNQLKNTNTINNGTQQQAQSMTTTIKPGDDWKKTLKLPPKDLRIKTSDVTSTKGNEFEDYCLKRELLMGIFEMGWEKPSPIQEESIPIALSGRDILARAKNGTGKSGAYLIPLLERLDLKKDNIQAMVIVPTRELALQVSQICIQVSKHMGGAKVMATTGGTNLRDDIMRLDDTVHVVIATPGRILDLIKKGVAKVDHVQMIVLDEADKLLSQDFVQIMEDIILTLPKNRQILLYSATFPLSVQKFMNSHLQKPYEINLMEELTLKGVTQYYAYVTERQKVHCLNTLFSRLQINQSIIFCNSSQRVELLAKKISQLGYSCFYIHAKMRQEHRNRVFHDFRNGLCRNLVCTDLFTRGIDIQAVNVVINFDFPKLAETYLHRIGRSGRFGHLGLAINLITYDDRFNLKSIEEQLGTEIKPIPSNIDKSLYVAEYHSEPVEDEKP
Procedure: as §2

HIV-1 NL4-3 = format: cell-based; conditions: MT-2 cells, 37 weeks of selection
[1] = Human immunodeficiency virus 1, NL43, MT2

T2 sequence (Q8IZH2 whole entry): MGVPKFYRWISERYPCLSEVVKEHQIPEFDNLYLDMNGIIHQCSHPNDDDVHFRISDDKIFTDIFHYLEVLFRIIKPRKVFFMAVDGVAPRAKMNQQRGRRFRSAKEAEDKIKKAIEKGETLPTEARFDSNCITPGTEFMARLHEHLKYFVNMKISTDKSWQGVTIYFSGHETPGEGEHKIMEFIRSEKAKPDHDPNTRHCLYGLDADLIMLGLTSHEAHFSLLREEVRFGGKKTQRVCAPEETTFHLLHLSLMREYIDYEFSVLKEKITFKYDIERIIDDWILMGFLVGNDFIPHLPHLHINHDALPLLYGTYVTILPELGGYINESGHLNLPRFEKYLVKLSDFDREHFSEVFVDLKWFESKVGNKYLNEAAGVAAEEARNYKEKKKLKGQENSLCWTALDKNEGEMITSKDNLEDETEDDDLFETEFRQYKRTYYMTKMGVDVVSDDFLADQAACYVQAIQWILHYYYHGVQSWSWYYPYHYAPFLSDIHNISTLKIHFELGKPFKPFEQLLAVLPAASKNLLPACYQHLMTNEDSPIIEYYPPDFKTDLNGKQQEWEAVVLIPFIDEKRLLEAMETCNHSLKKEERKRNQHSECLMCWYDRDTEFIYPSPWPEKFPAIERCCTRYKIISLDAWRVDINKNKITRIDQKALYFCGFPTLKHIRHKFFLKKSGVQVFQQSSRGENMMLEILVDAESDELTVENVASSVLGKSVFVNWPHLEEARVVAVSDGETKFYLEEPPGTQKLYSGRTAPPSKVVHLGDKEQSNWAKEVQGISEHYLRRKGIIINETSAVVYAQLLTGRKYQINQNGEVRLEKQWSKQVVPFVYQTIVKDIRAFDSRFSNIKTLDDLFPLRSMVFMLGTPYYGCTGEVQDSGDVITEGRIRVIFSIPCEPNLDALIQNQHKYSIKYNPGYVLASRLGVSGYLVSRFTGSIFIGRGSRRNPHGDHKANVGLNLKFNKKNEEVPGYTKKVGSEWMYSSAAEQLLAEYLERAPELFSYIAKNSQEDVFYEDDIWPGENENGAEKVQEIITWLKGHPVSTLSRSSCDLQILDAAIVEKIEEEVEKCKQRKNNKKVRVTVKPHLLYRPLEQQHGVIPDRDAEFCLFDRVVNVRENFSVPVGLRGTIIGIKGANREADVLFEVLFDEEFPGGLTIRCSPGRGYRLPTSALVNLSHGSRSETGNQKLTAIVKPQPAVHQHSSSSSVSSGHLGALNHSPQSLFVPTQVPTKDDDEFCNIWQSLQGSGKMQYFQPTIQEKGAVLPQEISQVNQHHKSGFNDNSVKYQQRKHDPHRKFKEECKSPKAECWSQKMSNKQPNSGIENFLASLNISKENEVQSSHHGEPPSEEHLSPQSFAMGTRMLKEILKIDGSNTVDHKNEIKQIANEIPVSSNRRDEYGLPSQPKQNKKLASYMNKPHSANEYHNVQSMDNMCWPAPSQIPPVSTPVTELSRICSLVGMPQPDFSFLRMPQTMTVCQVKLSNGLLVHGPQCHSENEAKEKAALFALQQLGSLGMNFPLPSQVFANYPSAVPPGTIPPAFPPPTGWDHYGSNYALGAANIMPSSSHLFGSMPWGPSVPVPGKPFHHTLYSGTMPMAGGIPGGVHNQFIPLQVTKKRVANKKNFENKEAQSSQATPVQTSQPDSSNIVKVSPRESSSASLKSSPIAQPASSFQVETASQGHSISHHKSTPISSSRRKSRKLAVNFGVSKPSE
T1 sequence (Q13283 whole entry): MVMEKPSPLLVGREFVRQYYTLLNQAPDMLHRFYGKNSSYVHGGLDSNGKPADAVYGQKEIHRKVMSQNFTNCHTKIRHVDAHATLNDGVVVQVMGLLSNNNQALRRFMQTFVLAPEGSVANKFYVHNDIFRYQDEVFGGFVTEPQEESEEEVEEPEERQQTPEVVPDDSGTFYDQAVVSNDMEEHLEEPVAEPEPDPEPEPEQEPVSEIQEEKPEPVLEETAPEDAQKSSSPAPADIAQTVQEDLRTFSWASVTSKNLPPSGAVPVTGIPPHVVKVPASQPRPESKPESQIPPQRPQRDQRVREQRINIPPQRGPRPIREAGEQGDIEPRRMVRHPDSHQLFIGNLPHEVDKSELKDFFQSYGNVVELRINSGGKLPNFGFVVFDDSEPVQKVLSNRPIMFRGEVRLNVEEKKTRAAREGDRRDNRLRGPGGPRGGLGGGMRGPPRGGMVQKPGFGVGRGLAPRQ
Procedure for MT-2 cells: as §4, §3

COc1ccc(/C=C/C2NCCc3cc(OCc4ccccc4)c(OC)cc32)c(C)c1 (centres unmarked) [PAV-218]
CC50 (μM) (MT-2 cells): 9.7 ×/÷ 1.2 μM
SI (CC50/EC50) (HIV-1 NL4-3 RLuc; MT-2 cells): 66

COc1ccc(/C=C/C2NCCc3cc(OCc4ccccc4)c(OC)cc32)cc1OCc1ccccc1 (centres unmarked) [PAV-220]
CC50 (in vitro; CC50 (μM)): 3.8 µM
pEC50 (HIV-1 NL4-3 RLuc; [1]): 6.79
SI (CC50/EC50) (HIV-1 NL4-3 RLuc; MT-2 cells): 23

COc1cc2c(cc1OCc1ccccc1)CCNC2/C=C/c1ccccc1C (centres unmarked) [PAV-245]
CC50 (in vitro; CC50 (μM)): 3.6 µM
pEC50 (HIV-1 NL4-3 RLuc; [1]): 6.12
SI (CC50/EC50) (HIV-1 NL4-3 RLuc; MT-2 cells): 4.8

COc1cc2c(cc1OCc1ccccc1)CCNC2/C=C/c1ccccc1 (centres unmarked) [PAV-492]
CC50 (in vitro; CC50 (μM)): > 10 µM
pEC50 (HIV-1 NL4-3 RLuc; [1]): 5.81
SI (CC50/EC50) (HIV-1 NL4-3 RLuc; MT-2 cells): > 6

COc1ccc(/C=C/C2NCCc3cc(OCc4ccccc4)c(OC)cc32)cc1 (centres unmarked) [PAV-493]
CC50 (in vitro; CC50 (μM)): 21 µM
SI (CC50/EC50) (HIV-1 NL4-3 RLuc; MT-2 cells): 37

COc1cc2c(cc1OCc1ccccc1)CCNC2/C=C/c1cccc(OCc2ccccc2)c1 (centres unmarked) [PAV-494]
CC50 (in vitro; CC50 (μM)): 4.1 µM
pEC50 (HIV-1 NL4-3 RLuc; [1]): 6.61
SI (CC50/EC50) (HIV-1 NL4-3 RLuc; MT-2 cells): 17

N#CCC(NC(=O)CCOCCOCCNC(=O)CCCC[C@@H]1SCC2NC(=O)NC21)C(=O)NCCCCOc1ccccc1 (some centres unmarked) [PAV-543, reference compound]
PLA spots/cell (biotin-G3BP1 PLA) (G3BP1): 1.6
CC50 (in vitro; CC50): > 100 µM
biotin-Gag PLA spots/cell (HIV-1 Gag; 10 μM, 293T-HIV (HIV +)): 9.3
pEC50 (HIV-1 NL4-3 RLuc; Human immunodeficiency virus 1, NL43, T-cell, read-out: EC50MT-2): < 4.00
PLA spots/cell (TIAR-G3BP1 PLA) (TIAR and G3BP1): 51.5
PLA spots/cell (biotin-XRN1 PLA) (XRN1): 3.8
PLA spots/cell (DDX6-XRN1 PLA) (DDX6 and XRN1): 77.4
biotin-ABCE1 PLA spots/cell (ABCE1; 10 μM, 293T-HIV (HIV +)): 4.5
biotin-DDX6 PLA spots/cell (DDX6; 10 μM, 293T-HIV (HIV +)): 12.6

COc1cc(C)c(C=CC2NCCc3cc(OCc4ccccc4)c(OC)cc32)cc1OCCCCNC(=O)C(CC1(C)N=N1)NC(=O)CCOCCOCCNC(=O)CCCCC1SCC2NC(=O)NC21 (centres unmarked) [PAV-818]
PLA spots/cell (biotin-G3BP1 PLA) (G3BP1): 6.3
colocalization with the stress granule protein G3BP1 (G3BP1; PLA): does not colocalize
CC50 (in vitro; CC50): ~30 µM
biotin-Gag PLA spots/cell (HIV-1 Gag; 5 μM, 293T-HIV (HIV +)): 32.6
biotin-Gag PLA spots/cell (HIV-1 Gag; 10 μM, 293T-HIV (HIV +)): 51.5
biotin-Gag PLA spots/cell (HIV-1 Gag; 10 μM, uninfected 293T (HIV −)): 7.1
biotin-Gag PLA spots/cell (HIV-1 Gag; 20 μM, 293T-HIV (HIV +)): 111.8
fold more biotin-Gag PLA spots than with PAV-543 (HIV-1 Gag; both at 10 μM, 293T-HIV): 5.5 fold
pEC50 (HIV-1 NL4-3 RLuc; Human immunodeficiency virus 1, NL43, T-cell, 96 h, read-out: EC50 for inhibition of HIV-1 replication): 6.02
selectivity index (CC50/EC50) (HIV-1 NL4-3 RLuc; MT-2 cells, from the shown dose-response curve): ~32
PLA spots/cell (TIAR-G3BP1 PLA) (TIAR and G3BP1): 35.0
PLA spots/cell (biotin-XRN1 PLA) (XRN1): 5.3
colocalization with the P-body marker XRN1 (XRN1; PLA): does not colocalize
PLA spots/cell (DDX6-XRN1 PLA) (DDX6 and XRN1): 35.2
biotin-ABCE1 PLA spots/cell (ABCE1; 5 μM, 293T-HIV (HIV +)): 42.0
biotin-ABCE1 PLA spots/cell (ABCE1; 10 μM, 293T-HIV (HIV +)): 64.2
biotin-ABCE1 PLA spots/cell (ABCE1; 10 μM, uninfected 293T (HIV −)): 72.9
biotin-ABCE1 PLA spots/cell (ABCE1; 20 μM, 293T-HIV (HIV +)): 104.7
fold more biotin-ABCE1 PLA spots than with PAV-543 (ABCE1; both at 10 μM, 293T-HIV): 14.3 fold
biotin-DDX6 PLA spots/cell (DDX6; 5 μM, 293T-HIV (HIV +)): 47.4
biotin-DDX6 PLA spots/cell (DDX6; 10 μM, 293T-HIV (HIV +)): 65.1
biotin-DDX6 PLA spots/cell (DDX6; 10 μM, uninfected 293T (HIV −)): 58.0
biotin-DDX6 PLA spots/cell (DDX6; 20 μM, 293T-HIV (HIV +)): 82.9
fold more biotin-DDX6 PLA spots than in PAV-543-treated or DMSO-treated cells (DDX6; 293T-HIV): ~5.1 fold

Cc1c(O)cccc1C(=O)N[C@@H](CSc1ccccc1)[C@H](O)CN1C[C@H]2CCCC[C@H]2C[C@H]1C(=O)NC(C)(C)C [nelfinavir, reference compound]
resistance level reached: compound concentration allowing virus replication, fold higher than the EC50 (HIV-1 NL4-3): 16 fold
